ChEMBL document CHEMBL4196204, “Sulfonic Acid-Containing Flavonoids from the Roots of Phyllanthus acidus” (J Nat Prod, 2018)
Active and inactive are the calls of the source. No cut-off for these calls is given here.

Legend:
HepG2 = assay: Antiproliferative activity against human HepG2 cells by MTT assay; assay type: functional, cell-based
MCF7 = assay: Antiproliferative activity against human MCF7 cells by MTT assay; assay type: functional, cell-based

## COc1c(O)c2c(c(S(=O)(=O)O)c1O)OC(c1ccc(O)cc1)CC2=O (racemic)
HepG2
  Activity: inactive
MCF7
  Activity: inactive
